Target: Arabidopsis thaliana SHMT
Test: SHMT activity assay (ED50 SHMT), coupled with N5,N10-CH2-THF dehydrogenase, NADH at 340 nm
Format: biochemical
Settings: Table 2, Arabidopsis thaliana SHMT enzyme assay; values given as upper bounds
How it was run: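 His-tagged SHMT purified on Ni-NTA. NADH formation followed at 340 nm for 30 min; ED50 from inhibition of initial velocity.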

**Q.** Which EC50 does the source give for `N#CC1=C(N)Oc2[nH]ncc2C1(c1cc(C#N)cc(C#N)c1)C1CCC1` (stereo not shown) [Compound 2.286] here?
**A.** < 10 nM

**Q.** How did the EC50 turn out when `CC(C)C1(c2cc(Br)cc(Br)c2)C(C#N)=C(N)Oc2[nH]ncc21` (stereo not shown) [Compound 2.287] was run?
**A.** < 10 nM

**Q.** With `N#CC1=C(N)Oc2[nH]ncc2C1(c1cc(Cl)cc(Cl)c1)C1(F)CCC1` (stereo not shown) [Compound 2.288] as the compound, how does the EC50 read?
**A.** < 100 nM

**Q.** `Cc1n[nH]c2c1C(c1ccc(Cl)c(OC(F)(F)F)c1)(C1CCC1)C(C#N)=C(N)O2` (stereo not shown) [Compound 2.289] was tested. Which EC50 did it give?
**A.** < 10 nM

**Q.** `N#CC1=C(N)Oc2[nH]ncc2C1(c1ccc(Cl)c(OC(F)(F)F)c1)C1CCC1` (stereo not shown) [Compound 2.290] was tested. Which EC50 did it give?
**A.** < 100 nM

**Q.** With `Cc1n[nH]c2c1C(c1cc(Cl)cc(Cl)c1)(C1CC=CC1)C(C#N)=C(N)O2` (stereo not shown) [Compound 2.291] as the compound, how does the EC50 read?
**A.** < 10 nM

**Q.** With `COc1c(Cl)cc(C2(C3CCC3)C(C#N)=C(N)Oc3[nH]nc(C)c32)cc1Cl` (stereo not shown) [Compound 2.292] as the compound, how does the EC50 read?
**A.** < 10 nM

**Q.** For `COc1c(Cl)cc(C2(C3CCC3)C(C#N)=C(N)Oc3[nH]ncc32)cc1Cl` (stereo not shown) [Compound 2.293], which EC50 is on record?
**A.** < 10 nM

**Q.** For `N#CC1=C(N)Oc2[nH]ncc2C1(c1cccc(SC(F)(F)F)c1)C1CCC1` (stereo not shown) [Compound 2.297], which EC50 is on record?
**A.** < 100 nM

**Q.** How did the EC50 turn out when `N#CC1=C(N)Oc2[nH]ncc2C1(c1cc(Cl)cc(I)c1)C1CCC1` (stereo not shown) [Compound 2.298] was run?
**A.** < 10 nM

**Q.** Which EC50 does the source give for `Cc1n[nH]c2c1C(c1cc(Cl)cc(I)c1)(C1CCC1)C(C#N)=C(N)O2` (stereo not shown) [Compound 2.299] here?
**A.** < 10 nM

**Q.** Which EC50 does the source give for `Cc1n[nH]c2c1C(c1cc(Br)cc(Br)c1)(C1CC=CC1)C(C#N)=C(N)O2` (stereo not shown) [Compound 2.300] here?
**A.** < 10 nM

**Q.** With `N#CC1=C(N)Oc2[nH]ncc2C1(c1cc(Br)cc(Br)c1)C1CC=CC1` (stereo not shown) [Compound 2.301] as the compound, how does the EC50 read?
**A.** < 100 nM

**Q.** For `N#CC1=C(N)Oc2[nH]ncc2C1(c1ccc(C(F)(F)F)c(C(F)(F)F)c1)C1CCC1` (stereo not shown) [Compound 2.302], which EC50 is on record?
**A.** < 10 nM

**Q.** Which EC50 does the source give for `Cc1n[nH]c2c1C(c1ccc(OC(F)(F)F)c(Cl)c1)(C1CCC1)C(C#N)=C(N)O2` (stereo not shown) [Compound 2.303] here?
**A.** < 10 nM

**Q.** With `Cc1n[nH]c2c1C(c1cccc(C(C)(F)F)c1)(C1CCC1)C(C#N)=C(N)O2` (stereo not shown) [Compound 2.305] as the compound, how does the EC50 read?
**A.** < 100 nM

**Q.** `Cc1n[nH]c2c1C(c1cc(Br)cc(OC(F)(F)F)c1)(C1CCC1)C(C#N)=C(N)O2` (stereo not shown) [Compound 2.307] was tested. Which EC50 did it give?
**A.** < 10 nM

**Q.** With `Cc1n[nH]c2c1C(c1cc(I)cc(I)c1)(C1CCC1)C(C#N)=C(N)O2` (stereo not shown) [Compound 2.308] as the compound, how does the EC50 read?
**A.** < 10 nM

**Q.** Which EC50 does the source give for `N#CC1=C(N)Oc2[nH]ncc2C1(c1cc(I)cc(I)c1)C1CCC1` (stereo not shown) [Compound 2.309] here?
**A.** < 10 nM

**Q.** With `CSc1cccc(C2(C3CCC3)C(C#N)=C(N)Oc3[nH]nc(C)c32)c1` (stereo not shown) [Compound 2.310] as the compound, how does the EC50 read?
**A.** < 10 nM

**Q.** `CSc1cccc(C2(C3CCC3)C(C#N)=C(N)Oc3[nH]ncc32)c1` (stereo not shown) [Compound 2.311] was tested. Which EC50 did it give?
**A.** < 1000 nM

**Q.** How did the EC50 turn out when `Cc1n[nH]c2c1C(c1cccc([S+](C)[O-])c1)(C1CCC1)C(C#N)=C(N)O2` (stereo not shown) [Compound 2.312] was run?
**A.** < 1000 nM

**Q.** How did the EC50 turn out when `Cc1n[nH]c2c1C(c1cccc(S(C)(=O)=O)c1)(C1CCC1)C(C#N)=C(N)O2` (stereo not shown) [Compound 2.313] was run?
**A.** < 1000 nM

**Q.** Which EC50 does the source give for `C#CCCC1(c2cc(Cl)cc(Cl)c2)C(C#N)=C(N)Oc2[nH]nc(C)c21` (stereo not shown) [Compound 2.314] here?
**A.** < 100 nM

**Q.** For `CC(C)C1(c2cc(Cl)cc(C(F)(F)F)c2)C(C#N)=C(N)Oc2[nH]ncc21` (stereo not shown) [Compound 2.315], which EC50 is on record?
**A.** < 10 nM

**Q.** With `Cc1n[nH]c2c1C(c1cc(Cl)cc(C(F)(F)F)c1)(C(C)C)C(C#N)=C(N)O2` (stereo not shown) [Compound 2.316] as the compound, how does the EC50 read?
**A.** < 10 nM

**Q.** Which EC50 does the source give for `CC(C)C1(c2cc(Cl)cc(Br)c2)C(C#N)=C(N)Oc2[nH]ncc21` (stereo not shown) [Compound 2.317] here?
**A.** < 10 nM

**Q.** With `Cc1n[nH]c2c1C(c1cc(Cl)cc(-c3ccccn3)c1)(C1CCC1)C(C#N)=C(N)O2` (stereo not shown) [Compound 2.318] as the compound, how does the EC50 read?
**A.** < 10 nM

**Q.** Which EC50 does the source give for `N#CC1=C(N)Oc2[nH]ncc2C1(c1cc(Cl)cc(-c2nccs2)c1)C1CCC1` (stereo not shown) [Compound 2.319] here?
**A.** < 10 nM

**Q.** `Cc1n[nH]c2c1C(c1cc(Cl)cc(-c3nccs3)c1)(C1CCC1)C(C#N)=C(N)O2` (stereo not shown) [Compound 2.320] was tested. Which EC50 did it give?
**A.** < 10 nM

**Q.** Which EC50 does the source give for `N#CC1=C(N)Oc2[nH]ncc2C1(c1cc(C#N)cc(C(F)(F)F)c1)C1CCC1` (stereo not shown) [Compound 2.321] here?
**A.** < 10 nM

**Q.** `COc1ccc(C2(C(C)C)C(C#N)=C(N)Oc3[nH]ncc32)cc1Br` (stereo not shown) [Compound 2.322] was tested. Which EC50 did it give?
**A.** < 10 nM

**Q.** Which EC50 does the source give for `Cc1n[nH]c2c1C(c1cc(C#N)cc(-c3ccccc3)c1)(C1CCC1)C(C#N)=C(N)O2` (stereo not shown) [Compound 2.323] here?
**A.** < 100 nM

**Q.** `Cc1n[nH]c2c1C(c1cc(Cl)cc(-c3cccnc3)c1)(C1CCC1)C(C#N)=C(N)O2` (stereo not shown) [Compound 2.324] was tested. Which EC50 did it give?
**A.** < 10 nM

**Q.** `Cc1n[nH]c2c1C(c1cc(C#N)cc(-c3cccc(C(F)(F)F)c3)c1)(C1CCC1)C(C#N)=C(N)O2` (stereo not shown) [Compound 2.325] was tested. Which EC50 did it give?
**A.** < 10 nM

**Q.** For `Cc1n[nH]c2c1C(c1cc(C#N)cc(-c3ccc(C(F)(F)F)cc3)c1)(C1CCC1)C(C#N)=C(N)O2` (stereo not shown) [Compound 2.326], which EC50 is on record?
**A.** < 10 nM

**Q.** How did the EC50 turn out when `Cc1n[nH]c2c1C(c1cc(C#N)cc(-c3cccc(F)c3)c1)(C1CCC1)C(C#N)=C(N)O2` (stereo not shown) [Compound 2.327] was run?
**A.** < 10 nM

**Q.** For `Cc1n[nH]c2c1C(c1cc(C#N)cc(-c3ccc(F)cc3)c1)(C1CCC1)C(C#N)=C(N)O2` (stereo not shown) [Compound 2.328], which EC50 is on record?
**A.** < 10 nM

**Q.** How did the EC50 turn out when `Cc1n[nH]c2c1C(c1cc(C#N)cc(-c3ccsc3)c1)(C1CCC1)C(C#N)=C(N)O2` (stereo not shown) [Compound 2.329] was run?
**A.** < 10 nM

**Q.** For `COc1c(Cl)cc(C2(C(C)C)C(C#N)=C(N)Oc3[nH]ncc32)cc1Cl` (stereo not shown) [Compound 2.330], which EC50 is on record?
**A.** < 10 nM

**Q.** How did the EC50 turn out when `COc1c(Cl)cc(C2(C(C)C)C(C#N)=C(N)Oc3[nH]nc(C)c32)cc1Cl` (stereo not shown) [Compound 2.331] was run?
**A.** < 10 nM

**Q.** With `Cc1n[nH]c2c1C(c1cc(C#N)cc(-c3cccc(Cl)c3)c1)(C1CCC1)C(C#N)=C(N)O2` (stereo not shown) [Compound 2.332] as the compound, how does the EC50 read?
**A.** < 10 nM

**Q.** Which EC50 does the source give for `Cc1n[nH]c2c1C(c1cc(C#N)cc(-c3ccc(Cl)cc3)c1)(C1CCC1)C(C#N)=C(N)O2` (stereo not shown) [Compound 2.333] here?
**A.** < 10 nM

**Q.** `Cc1n[nH]c2c1C(c1cc(Br)cc(C#N)c1)(C(C)C)C(C#N)=C(N)O2` (stereo not shown) [Compound 2.334] was tested. Which EC50 did it give?
**A.** < 10 nM

**Q.** `CC(C)C1(c2cc(C#N)cc(C#N)c2)C(C#N)=C(N)Oc2[nH]ncc21` (stereo not shown) [Compound 2.336] was tested. Which EC50 did it give?
**A.** < 10 nM

**Q.** Which EC50 does the source give for `CC(C)C1(c2cc(C#N)cc(C(F)(F)F)c2)C(C#N)=C(N)Oc2[nH]ncc21` (stereo not shown) [Compound 2.337] here?
**A.** < 10 nM

**Q.** For `Cc1n[nH]c2c1C(c1cc(C#N)cc(C(F)(F)F)c1)(C(C)C)C(C#N)=C(N)O2` (stereo not shown) [Compound 2.338], which EC50 is on record?
**A.** < 10 nM

**Q.** For `N#CC1=C(N)Oc2[nH]ncc2C1(c1cc(Cl)cc(-c2cscn2)c1)C1CCC1` (stereo not shown) [Compound 2.339], which EC50 is on record?
**A.** < 100 nM

**Q.** Which EC50 does the source give for `Cc1n[nH]c2c1C(c1cc(Cl)cc(Oc3ccc(Cl)cc3)c1)(C1CCC1)C(C#N)=C(N)O2` (stereo not shown) [Compound 2.341] here?
**A.** < 10 nM

**Q.** For `COc1ccc(Oc2cc(Cl)cc(C3(C4CCC4)C(C#N)=C(N)Oc4[nH]ncc43)c2)cc1` (stereo not shown) [Compound 2.343], which EC50 is on record?
**A.** < 10 nM

**Q.** `COc1ccc(Oc2cc(Cl)cc(C3(C4CCC4)C(C#N)=C(N)Oc4[nH]nc(C)c43)c2)cc1` (stereo not shown) [Compound 2.344] was tested. Which EC50 did it give?
**A.** < 10 nM

**Q.** With `Cc1n[nH]c2c1C(c1cc(Cl)cc(C#N)c1)(C(C)C)C(C#N)=C(N)O2` (stereo not shown) [Compound 2.345] as the compound, how does the EC50 read?
**A.** < 10 nM

**Q.** `N#CC1=C(N)Oc2[nH]ncc2C1(c1cc(C#N)cc(-c2ccccn2)c1)C1CCC1` (stereo not shown) [Compound 2.348] was tested. Which EC50 did it give?
**A.** < 10 nM

**Q.** For `Cc1n[nH]c2c1C(c1cc(C#N)cc(-c3cccnc3)c1)(C1CCC1)C(C#N)=C(N)O2` (stereo not shown) [Compound 2.350], which EC50 is on record?
**A.** < 10 nM

**Q.** With `N#CC1=C(N)Oc2[nH]ncc2C1(c1cc(C#N)cc(-c2nccs2)c1)C1CCC1` (stereo not shown) [Compound 2.351] as the compound, how does the EC50 read?
**A.** < 10 nM

From patent US9480259B2, “Pyrazolopyrans having herbicidal and pharmaceutical properties” (BASF SE, priority 2012, dated 2016)
